Data from patent US20230255970A1, “COMPOSITIONS AND METHODS FOR TREATING PROLIFERATIVE DISEASES” (The Broad Institute, Inc., priority 2020, published 2023).

What was measured:
p38a (MAPK14) = biological target: T1, p38a (MAPK14) (Homo sapiens, UniProt Q16539); assay: Single-cell p38a activity reporter assay (RPE1-p38 KTR); format: cell-based; conditions: 1 μM, confirmed at 10 μM; 48 hours; RPE1 cells
T1 construct: tested for their influence on p38a activity using the RPE1-p38 kinase translocation reporter (KTR) line; endogenous in cells; host or cells: RPE1-p38KTR cells
T1 sequence (Q16539 whole entry): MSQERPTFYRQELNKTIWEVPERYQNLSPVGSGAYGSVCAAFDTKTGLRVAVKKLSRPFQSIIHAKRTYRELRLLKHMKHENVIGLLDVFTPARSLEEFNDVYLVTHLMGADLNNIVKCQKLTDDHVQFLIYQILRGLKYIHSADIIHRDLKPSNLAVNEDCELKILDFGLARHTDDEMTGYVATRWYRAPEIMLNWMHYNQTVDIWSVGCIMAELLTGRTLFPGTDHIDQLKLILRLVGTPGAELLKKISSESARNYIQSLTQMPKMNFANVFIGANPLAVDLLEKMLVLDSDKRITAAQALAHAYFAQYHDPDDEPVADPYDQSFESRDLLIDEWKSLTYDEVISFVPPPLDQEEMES
Experimental: Cell Painting profiles for two wild-type variants of p38a (MAPK14) were averaged to create a p38a Cell Painting profile. 20 compounds whose Cell Painting profile correlated positively or negatively to that of p38a overexpression were selected in addition to 14 “non-correlated compounds” defined as having an absolute value of correlation of less than 0.2 as negative/neutral controls. The compounds were tested for their influence on p38a activity using the RPE1-p38 kinase translocation reporter (KTR) line that was previously generated. This cell line has been tested and confirmed to be negative for mycoplasma contamination, but not necessarily authenticated. P38 activity is measured by phosphorylation of its substrate, MEF2C, which is preferentially phosphorylated by p38 α, while p380 and p386 contribute less. RPE1-p38KTR cells were cultured in DMEM/F12 medium supplemented with 10% Fetal Bovine Serum at 37C in a humidified atmosphere with 5% CO2. 1000 cells were plated in 96-well plates and treated with 1p M or 10 μM of each compound (n=4 per concentration per compound, no replicates) for 48 hours. Only the middle 60 wells were used to prevent potential confounds from the edge effect. Cells were then fixed in 4% paraformaldehyde for 10 min, followed by permeabilization in cold methanol at −20C for 5 min. Cells were stained with 0.4 μg/mL Alexa Fluor 647 carboxylic acid, succinimidyl ester for 2 hr at RT, followed by 1 μg/mL DAPI for 10 min at RT to facilitate the segmentation of individual cells. p38a activity in single cells was calculated using the ratio of the median intensity of the p38-KTR in a 5-pixel-wide cytoplasmic ring around the nucleus to the median intensity of the p38-KTR in the nucleus. p38a activity measurements were normalized to DMSO conditions within the same plate. The Student's t-test Kolomogorov-Smirnov (KS) test was used to assess the score and significance of the single cell distributions of p38a activity for each compound relative to control. […] When reporting hits from this assay, KS test and t-test p-values were adjusted to control the false discovery rate using the Benjamini-Hochberg method, using the p.adjust method=‘BH” in R.

rat cortical neurons = assay: TMRE staining (mitochondrial membrane potential) in rat cortical neurons; format: cell-based; conditions: 10 μM
Experimental: High content mitochondrial motility screen: Mitochondrial motility was measured as described in Shlevkov, E. et al., Cell Rep. […] Briefly, we plated E18 rat cortical neurons in the middle 60 wells of 96 well plates (Greiner)—40,000 cells per well in 150 μl enriched Neurobasal media. Neurons were transfected with mito-DsRed at DIV7 using Lipofectamine2000 (Life Technologies). […] At DIV9, test compounds were added into wells to achieve a final concentration of 10 μM each (4 wells per compound), as well at 10 μM calcimycin for neg. control, and DMSO only for mock treatment. Following a 1-2 hour incubation, plates were imaged on a ArrayScan XTI (Thermo Fisher). Mitochondrial motility data was extrapolated from imaging data using a MATLAB and CellProfiler based computational pipeline. […] The experiment was repeated twice in different weeks. In the second week, TMRE was added to all wells after imaging was completed (20 min, then 2 washes) and imaged to measure mitochondrial membrane potential in order to determine mitochondrial and cell health.

PPARG = PPARG reporter gene assay (FABP4-NanoLuc, RT112/84 bladder cancer cell line); format: cell-based; conditions: absence or presence of Rosiglitazone
Experimental: These NanoLuc gene cloned RT112/84 cells were plated in 384-well plates at ˜10,000 cells/well. Cells were dosed with indicated compounds in the absence or presence of EC50 of PPARG agonist, rosiglitazone, using an HP D300 digital dispenser. The following day nuclei were counted for normalization (IncuCyte S3, Essen Bioscience) and the reporter activity was evaluated using the NanoGlo Luciferase Assay System (Promega). Normalized data is reported as NanoGlo arbitrary light units divided by cell number. PPARG agonist, rosiglitazone, and inhibitor, T0070907, were obtained from Tocris and included as controls.

U2OS cells = assay: Cell count in U2OS Cell Painting images; format: cell-based, human; conditions: U2OS Cell Painting
Description: (§1) Of these, analysis of the 220 constructs that were most closely representative of the annotated full-length transcripts was prioritized. […] Not all genes are likely to impact cellular morphology given the limitation of the experiment; using a single cell line at a single time point under a single set of conditions and stained with six fluorescent labels.
(§2) This standardization was done plate wise, based on the mean and standard deviation of the controls at profile level for the compound dataset. […] The signatures were then obtained by averaging the replicate profiles feature-wise. Pearson correlation was used on the aligned signatures of a gene and compound to score their connection.

[1] = tested on: YAP1 overexpression in U2OS cells; assay: Cell Painting morphological profile matching to YAP1/TAZ overexpression signature; format: cell-based, human; conditions: Pearson correlation of Cell Painting signatures, U2OS cells
Description: as §1
FIG. 2 provides an example characterization of matching the morphological signature of a gene query to the signature(s) of compounds in a library. Connections which show both positive and negative large correlations are considered as matches.
as §2

[2] = tested on: TRAF2 overexpression in U2OS cells; assay: Cell Painting morphological profile matching to TRAF2 overexpression; format: cell-based, human; conditions: Pearson correlation of Cell Painting signatures, U2OS cells
Description: as §1, §2

## Nc1nc(Nc2ccccc2)nc2c1ncn2C1OC(CO)C(O)C1O (stereo not shown) [BRD-A64933752, 2-(6-amino-2-anilinopurin-9-yl)-5-(hydroxymethyl)oxolane-3,4-diol]
p38a (MAPK14)
  p38a activity: potential inhibitors

## CC(C)(C)n1nc(-c2cccc3ccccc23)c2c(N)ncnc21 [BRD-K29542628, 1-(tert-Butyl)-3-(naphthalen-1-yl)-1H-pyrazolo[3,4-d]pyrimidin-4-amine]
Rat cortical neurons
  TMRE staining (mitochondrial membrane potential): normal levels of TMRE staining
PPARG
  PPARG reporter activity: active in the PPARG reporter assay

## CCCCNc1cc(C(=O)O)cc(S(N)(=O)=O)c1Oc1ccccc1 [BRD-K38197229, 3-(butylamino)-4-phenoxy-5-sulfamoylbenzoic acid]
p38a (MAPK14)
  p38a activity: potential inhibitors

## O=C(Nc1ccncc1)Nc1c(Cl)cc(Cl)cc1Cl [BRD-K46678324, 1-pyridin-4-yl-3-(2,4,6-trichlorophenyl)urea]
U2OS cells
  Avg. Cell Count z-score: −0.7252
[1]
  Corr. to YAP1 cluster: 0.4284
[2]
  Corr. to TRAF2: −0.3397

## O=C(N[C@H]1CC[C@@H](CCNS(=O)(=O)c2ccc(F)cc2)O[C@H]1CO)C1CCOCC1 [BRD-K48052543, N-[(2R,3S,6S)-6-[2-[(4-fluorophenyl)sulfonylamino]ethyl]-2-(hydroxymethyl)oxan-3-yl]oxane-4-carboxamide]
U2OS cells
  Avg. Cell Count z-score: 0.09801
[1]
  Corr. to YAP1 cluster: 0.5099
[2]
  Corr. to TRAF2: −0.4132

## COC1(C[S@@+]([O-])c2ccccc2)CCN(CCc2c[nH]c3ccc(F)cc23)CC1 [BRD-K52394958, 5-Fluoro-3-[2-[4-methoxy-4-[[(R)-phenylsulfinyl]methyl]piperidin-1-yl]ethyl]-1H-indole]
p38a (MAPK14)
  p38a activity: identified via an alternative statistical test

## O=C(Nc1ccc2c(c1)[C@H]1C[C@@H](CC(=O)N3CCCCC3)O[C@@H](CO)[C@H]1O2)C1CCOCC1 [BRD-K62768599, N-[(1S,3S,4aR,9aS)-1-(hydroxymethyl)-3-[2-oxo-2-(1-piperidinyl)ethyl]-3,4,4a,9a-tetrahydro-1H-pyrano[3,4-b]benzofuran-6-yl]-4-oxanecarboxamide]
U2OS cells
  Avg. Cell Count z-score: −0.7392
[1]
  Corr. to YAP1 cluster: 0.4883
[2]
  Corr. to TRAF2: −0.5272

## CCc1cc(-c2n[nH]c(C)c2-c2ccc3c(c2)OCCO3)c(O)cc1O [BRD-K65503129, 4-[4-(2,3-dihydro-1,4-benzodioxin-6-yl)-5-methyl-1H-pyrazol-3-yl]-6-ethylbenzene-1,3-diol]
PPARG; listed as B09
  PPARG reporter activity: active in the PPARG reporter assay
PPARG; listed as CCT018159
  PPARG reporter activity: inhibited reporter activity

## COC(=O)C[C@H]1C[C@H]2c3cc(NS(=O)(=O)c4cccc(OC)c4)ccc3O[C@H]2[C@@H](CO)O1 [BRD-K68530167, 2-[(1R,3R,4aS,9aR)-1-(hydroxymethyl)-6-[(3-methoxyphenyl)sulfonylamino]-3,4,4a,9a-tetrahydro-1H-pyrano[3,4-b]benzofuran-3-yl]acetic acid methyl ester]
U2OS cells
  Avg. Cell Count z-score: −0.1411
[1]
  Corr. to YAP1 cluster: 0.494
[2]
  Corr. to TRAF2: −0.4619

## CCCCCCCCCCCCCC(=O)O[C@@H]1[C@@H](C)[C@@]2(O)[C@@H](C=C(CO)C[C@]3(O)C(=O)C(C)=C[C@@H]23)[C@@H]2C(C)(C)[C@]12OC(C)=O [BRD-K68552125, 12-O-Tetradecanoylphorbol-13-acetate]
Rat cortical neurons
  TMRE staining (mitochondrial membrane potential): normal levels of TMRE staining
PPARG; listed as A06
  PPARG reporter activity: active in the PPARG reporter assay
PPARG; listed as Phorbol 12-myristate 13-acetate
  PPARG reporter activity: inhibited reporter activity

## COc1cccc(S(=O)(=O)N2C[C@H](O)COC[C@@H]3O[C@H](CC(=O)N4CCN(c5ccccc5)CC4)CC[C@H]32)c1 [BRD-K70003473, 2-[(3S,6aR,8S,10aR)-3-hydroxy-1-(3-methoxyphenyl)sulfonyl-3,4,6,6a,8,9,10,10a-octahydro-2H-pyrano[2,3-c][1,5]oxazocin-8-yl]-1-(4-phenyl-1-piperazinyl)ethanone]
U2OS cells
  Avg. Cell Count z-score: 0.5728
[1]
  Corr. to YAP1 cluster: −0.4195
[2]
  Corr. to TRAF2: 0.3099

## O=c1[nH]ccc2c(S(=O)(=O)N3CCCNCC3)cccc12 [BRD-K77793136, 5-(1,4-diazepan-1-ylsulfonyl)-2H-isoquinolin-1-one]
U2OS cells
  Avg. Cell Count z-score: −1.055
[1]
  Corr. to YAP1 cluster: 0.4458
[2]
  Corr. to TRAF2: −0.4667

## CCc1nc(N)nc(N)c1-c1ccc(Cl)cc1 [BRD-K88429204, 5-(4-chlorophenyl)-6-ethylpyrimidine-2,4-diamine]
U2OS cells
  Avg. Cell Count z-score: −0.2165
[1]
  Corr. to YAP1 cluster: 0.4503
[2]
  Corr. to TRAF2: −0.3496

## CC(C)(C)n1nc(-c2ccc(Cl)cc2)c2c(N)ncnc21 [BRD-K95785537, 1-(tert-butyl)-3-(4-chlorophenyl)-1H-pyrazolo[3,4-d]pyrimidin-4-amine]
Rat cortical neurons
  TMRE staining (mitochondrial membrane potential): normal levels of TMRE staining

## C[C@@H]1CN([C@H](C)CO)C(=O)CCCn2cc(nn2)CO[C@@H]1CN(C)S(=O)(=O)c1ccc(Oc2ccccc2)cc1 [BRD-K96698997, N-[[(8R,9S)-6-[(2R)-1-hydroxypropan-2-yl]-8-methyl-5-oxo-10-oxa-1,6,13,14-tetrazabicyclo[10.2.1]pentadeca-12(15),13-dien-9-yl]methyl]-N-methyl-4-phenoxybenzenesulfonamide]
U2OS cells
  Avg. Cell Count z-score: −1.099
[1]
  Corr. to YAP1 cluster: −0.4518
[2]
  Corr. to TRAF2: 0.4834

## Cc1ccc(-c2nn(C(C)(C)C)c3ncnc(N)c23)cc1 [PP1, reference compound]
PPARG
  PPARG reporter activity: reporter activation

## Oc1ccc(-c2nc(-c3ccc(F)cc3)c(-c3ccncc3)[nH]2)cc1 [SB202190, 4-(4-(4-fluorophenyl)-5-(pyridin-4-yl)-1H-imidazol-2-yl)phenol, reference compound]
p38a (MAPK14)
  p38a activity: suppressed p38a activity
